The source of these data is PubChem BioAssay AID2060617 (Molecular Pharmacology Branch, DTP, NCI, 2025).

Several values for one entry are separate records, joined by “and”; a condition that tells them apart may be missing. Equal values may be shown once.

For this test, the system named is 485368-065-R4-J2-PDC spheroids with HUVEC/MSC, viability. Nature of the test: Anticancer human tumor 485368-065-R4-J2-PDC patient-derived pancreatic carcinoma cell line growth inhibition [CLK]. The following applies: for viability, T/C: stronger effect = lower value. The text has this: A high-throughput screen of multi-cell type tumor spheroids was designed to identify active combinations of […] and targeted small molecules. Complex spheroids include a stromal component modeled by human endothelial cells (HUVEC) and fibroblasts modeled by human mesenchymal stem cells (MSCs). The concentration ranges selected for each drug and investigational agent were based upon clinically achievable concentrations if the clinical Cmax of the agent was known.
Compounds. The drugs and investigational agents: cirtuvivint (SM08502; NSC835563), CC-671 (NSC850746), vemurafenib (NSC761431), tapotoclax (NSC804041), sotorasib (NSC818433), adagrasib (NSC831453), MRTX-1133 (NSC836407), BAY2416964 (NSC825713), copanlisib (NSC816437), inavolisib (NSC800729), abemaciclib (NSC768073), osimertinib (NSC779217), entinostat (NSC756642), eltanexor (KPT-8602, NSC794443), venetoclax (NSC766270), ceralasertib (NSC777638), bortezomib (NSC756655), olaparib (NSC753686), talazoparib (NSC767125), alisertib (NSC759677), peposertib (NSC802822), gemcitabine (NSC613327), 5-fluorouracil (NSC19893), SN-38 (NSC673596), oxaliplatin (NSC266046), paclitaxel (NSC125973), and doxorubicin (NSC123127), were obtained from the National Cancer Institute (NCI) Developmental Therapeutics Program Chemical Repository. The FDA-approved anticancer drug set is available from the Developmental Therapeutics Program at https://dtp.cancer.gov/organization/dscb/obtaining/available plates.htm. […] The stock solutions were prepared in dimethyl sulfoxide (DMSO, Sigma-Aldrich, St. Louis, MO, cat. D2650), except for the platinum complexes which were prepared in saline (Quality Biological, Gaithersburg, MD, cat. 114-055-101), at 800-fold the tested concentration and stored at -70 degrees C prior to their use. All drugs and investigational agents were tested over a range starting from a high concentration at or near the clinical Cmax and decreasing in half-log increments. If the clinical Cmax for an agent had not been determined, the highest concentration tested was 10 microM.
Cell Culture. All cells were maintained in an incubator at 37 degrees C and 5% CO2 with 95% humidity. The PDC lines were cultured according to standard operating procedures established by the NCI PDMR. Briefly, all PDCs were thawed and cultured in Matrigel-coated flasks prepared with a working solution of 1X Ham's F-12 nutrient mix, without supplementation (Invitrogen, Waltham, MA, cat. 11765054), 100 U/mL penicillin-streptomycin (Invitrogen, cat. 15140122), and 2.5% Matrigel (Corning Inc., Corning, NY, cat. 354248) for the first three passages. The 947758-054-R-J2-PDC line was cultured in 6B/Colon 1A media, which includes advanced DMEM/F-12 (Thermo Fisher Scientific, cat. 12634028), 10 mM HEPES (Thermo Fisher Scientific, cat. 15630080), 1X GlutaMAX supplement (Thermo Fisher Scientific, cat. 35050061), 0.1 mg/mL primocin (InvivoGen, cat. ant-pm-2), 10% defined fetal bovine serum, heat inactivated (HyClone Laboratories Inc., cat. SH30070.03HI), 1.25 mM N-Acetyl-L-cysteine (Sigma-Aldrich, cat. A9165), 10 mM nicotinamide (Sigma-Aldrich, cat. N0636), 1X B-27 supplement (Thermo Fisher Scientific, cat. 17504044), 1X N-2 supplement (Thermo Fisher Scientific, cat. 17502048), and 10 microM Y-27632 dihydrochloride (Tocris Bioscience, cat. 1254). The 876862-298-R-J1-PDC was cultured in 6E media, which includes all 6B/Colon 1A media components plus 50% L-WRN conditioned media (ATCC, cat. CRL-3276), 50 ng/mL recombinant human EGF recombinant protein (hEGF; Thermo Fisher Scientific, cat. PHG0311), 10 ng/mL recombinant human fibroblast growth factor 10 (hGFG-10; PeproTech, cat. 100-26), 1 ng/mL recombinant human fibroblast growth factor 2 (hFGF-2; PeproTech, cat. 100-18B), and 1 µM prostaglandin E2 (PGE2; Tocris, cat. 2296). The 227483-062-R1-J1-PDC line was cultured in Panc media, containing all 6E components except hFGF-2, with the addition of 500 nM SB-431542 (Selleckchem, cat. S1067) and 10 nM gastrin (Tocris, cat. 3006). […]
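Also: spheroids exposed to compounds for seven days.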
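For viability, T/C in this document: 100% = DMSO vehicle control wells.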

What is called viability, T/C is the ratio of treated to control. The IC50 is the concentration that gives 50% inhibition. `C#Cc1c(F)ccc2cc(O)cc(-c3ncc4c(N5CC6CCC(C5)N6)nc(OCC56CCCN5CC(F)C6)nc4c3F)c12` (stereo unspecified): the viability, T/C was 99.6% and 90.9% (compound 0.0316 µM); 97.5% and 111% (compound 0.1 µM); 102% and 103% (compound 0.316 µM); 98.2% and 102% (compound 1 µM); 117% and 107% (compound 3.16 µM); 114% and 106% (compound 10 µM). Further, the IC50 (curve of compound) was above 10000 nM.

In the case of `C=C(F)C(=O)N1CCN(c2nc(OCC3CCCN3C)nc3c2CCN(c2cccc4cccc(Cl)c24)C3)CC1CC#N` (stereo unspecified), the viability, T/C is, setting by setting: (compound 0.0316 µM) 94.9% and 103%; (compound 0.1 µM) 97% and 106%; (compound 0.316 µM) 95.6% and 100%; (compound 1 µM) 106% and 105%; (compound 3.16 µM) 121% and 113%; (compound 10 µM) 104% and 126%. Further, where the note is “curve of compound”, the IC50 was above 10000 nM.

On to `C=CC(=O)N1CCN(c2nc(=O)n(-c3c(C)ccnc3C(C)C)c3nc(-c4c(O)cccc4F)c(F)cc23)C(C)C1` (stereo unspecified), for which the viability, T/C is 96.8% and 96.9% (compound 0.0316 µM); 96.4% and 107% (compound 0.1 µM); 99.8% and 100% (compound 0.316 µM); 97.9% and 106% (compound 1 µM); 92.3% and 88.3% (compound 3.16 µM); 89.2% and 93.7% (compound 10 µM). The IC50 (curve of compound) is above 10000 nM.

Turning to `C=CC(=O)Nc1cc(Nc2nccc(-c3cn(C)c4ccccc34)n2)c(OC)cc1N(C)CCN(C)C`, the viability, T/C is 109% and 99.5% (compound 0.000949 µM); 97.1% and 97.7% (compound 0.003 µM); 97.5% and 83.8% (compound 0.00949 µM); 104% and 97.5% (compound 0.03 µM); 110% and 96.7% (compound 0.0949 µM); 107% and 99.8% (compound 0.3 µM). Also, where the note is “curve of compound”, the IC50 is above 300 nM.

With `CC(C)CC(NC(=O)C(Cc1ccccc1)NC(=O)c1cnccn1)B(O)O` (stereo unspecified), the viability, T/C reads like this: (compound 0.000949 µM) 89.2% and 97.4%; (compound 0.003 µM) 109% and 134%; (compound 0.00949 µM) 31.1%; (compound 0.03 µM) 23.3% and 18.4%; (compound 0.0949 µM) 12.5% and 15.6%; (compound 0.3 µM) 5.93% and 5.56%. The IC50 (curve of compound) is 6.88 nM and 7.33 nM.

Turning to `CC(CO)NC(=O)c1cc(-c2ccc(Cl)cc2)nn(-c2cnn(C)c2)c1=O` (stereo unspecified), the viability, T/C runs as follows: (compound 0.0316 µM) 86.9% and 92.3%; (compound 0.1 µM) 92.6% and 87.3%; (compound 0.316 µM) 97.4% and 89.7%; (compound 1 µM) 100% and 101%; (compound 3.16 µM) 107% and 110%; (compound 10 µM) 105% and 104%. The IC50 (curve of compound) is above 10000 nM.

Regarding `CC(Nc1ccc2c(c1)OCCn1cc(N3C(=O)OCC3C(F)F)nc1-2)C(N)=O` (stereo unspecified), the viability, T/C is, setting by setting: (compound 0.0316 µM) 95.1% and 99.5%; (compound 0.1 µM) 102% and 117%; (compound 0.316 µM) 116% and 105%; (compound 1 µM) 100% and 102%; (compound 3.16 µM) 91.4% and 89.5%; (compound 10 µM) 86.5% and 79.1%. For the setting “curve of compound”, the IC50 was above 10000 nM.

On to `CCCS(=O)(=O)Nc1ccc(F)c(C(=O)c2c[nH]c3ncc(-c4ccc(Cl)cc4)cc23)c1F`, for which the viability, T/C was 103% and 95.3% (compound 0.0316 µM); 109% and 96.8% (compound 0.1 µM); 95.8% and 90.5% (compound 0.316 µM); 93.7% and 90.6% (compound 1 µM); 91.3% and 80.7% (compound 3.16 µM); 123% and 108% (compound 10 µM). The half-maximal inhibitory concentration (IC50) (curve of compound) is above 10000 nM.

Turning to `CCN1CCN(Cc2ccc(Nc3ncc(F)c(-c4cc(F)c5nc(C)n(C(C)C)c5c4)n3)nc2)CC1`, the viability, T/C (compound 0.00316 µM) was 91.1% and 106%; the viability, T/C (compound 0.01 µM) was 114% and 96.1%; the viability, T/C (compound 0.0316 µM) is 115% and 116%; the viability, T/C (compound 0.1 µM) is 140% and 113%; the viability, T/C (compound 0.316 µM) was 128% and 129%; the viability, T/C (compound 1 µM) is 117% and 116%. The IC50 (curve of compound) is above 1000 nM.

Consider `CCc1c2c(nc3ccc(O)cc13)-c1cc3c(c(=O)n1C2)COC(=O)[C@]3(O)CC`, for which the viability, T/C is, setting by setting: (compound 0.00316 µM) 46.5% and 55.5%; (compound 0.01 µM) 22.5% and 24.9%; (compound 0.0316 µM) 10.9% and 13.2%; (compound 0.1 µM) 7.63% and 7.75%; (compound 0.316 µM) 7.05% and 6.79%; (compound 1 µM) 14.8% and 15.6%. Further, under “curve of compound”, the concentration for half-maximal inhibition (IC50) is < 3.16 nM and 3.83 nM.

`CN1CCN(c2cc(C(=O)Nc3cc4cc(-c5cnn(C)c5)ccc4cn3)ccn2)CC1`: the viability, T/C is 95.6% [middle of 12 runs] (compound 0.0316 µM); 83% [middle of 12 runs] (compound 0.316 µM); 0.9% [middle of 11 runs] (compound 1 µM); 1.39% [middle of 12 runs] (compound 3.16 µM); 1.68% [middle of 11 runs] (compound 10 µM). In addition, the IC50 (compound alone, run of 08/14/2023) is 504 nM [middle of 12 runs].

Consider `CNC(=O)c1ccc(Nc2nc(OC3CCCC3)c3c(-c4ccc5nc(C)oc5c4)c[nH]c3n2)c(OC)c1`, for which the viability, T/C is 91.6% [middle of 12 runs] (compound 0.0316 µM); 96.7% [middle of 12 runs] (compound 0.1 µM); 82.6% [middle of 12 runs] (compound 0.316 µM); 70.9% [middle of 12 runs] (compound 1 µM); 71.5% [middle of 12 runs] (compound 3.16 µM); 76.5% [middle of 12 runs] (compound 10 µM). Also, where the note is “compound alone, run of 08/15/2023”, the IC50 is above 10000 nM.

On to `COC1C=CCC(C)C(C)S(=O)(=O)NC(=O)c2ccc3c(c2)N(CC2CCC21)CC1(CCCc2cc(Cl)ccc21)CO3` (stereo unspecified), for which the viability, T/C by setting is: (compound 0.0316 µM) 92.5% and 105%; (compound 0.1 µM) 109% and 93.5%; (compound 0.316 µM) 101% and 105%; (compound 1 µM) 132% and 123%; (compound 3.16 µM) 105%; (compound 10 µM) 86.1% and 74.7%. For the same compound, the IC50 (curve of compound) was above 10000 nM.

In the case of `COc1c(OCCCN2CCOCC2)ccc2c3n(c(=NC(=O)c4cnc(N)nc4)nc12)CCN3`, the viability, T/C is 97% and 92.1% (compound 0.00316 µM); 101% and 121% (compound 0.01 µM); 109% and 111% (compound 0.0316 µM); 77.3% and 65.7% (compound 0.1 µM); 50.9% and 52% (compound 0.316 µM); 41.1% and 39.6% (compound 1 µM). Besides, under “curve of compound”, the IC50 is 281 nM and 248 nM.

Turning to `Cn1ncnc1[C@H]1c2n[nH]c(=O)c3cc(F)cc(c23)N[C@@H]1c1ccc(F)cc1`, the viability, T/C is, setting by setting: (compound 0.000316 µM) 94.6% and 84.6%; (compound 0.001 µM) 88.2% and 97.3%; (compound 0.00316 µM) 100% and 92.9%; (compound 0.01 µM) 94.7% and 89.8%; (compound 0.0316 µM) 94.3% and 105%; (compound 0.1 µM) 97.9% and 98.6%. For the same compound, the IC50 (curve of compound) was above 100 nM.

For the compound `NC(=O)C(=Cn1cnc(-c2cc(C(F)(F)F)cc(C(F)(F)F)c2)n1)c1cncnc1`, the viability, T/C (compound 0.00949 µM) is 94.3% and 112%; the viability, T/C (compound 0.03 µM) was 120% and 123%; the viability, T/C (compound 0.0949 µM) was 176% and 183%; the viability, T/C (compound 0.3 µM) is 193% and 186%; the viability, T/C (compound 0.949 µM) is 169% and 182%; the viability, T/C (compound 3 µM) was 122% and 136%. The half-inhibitory concentration (IC50) (curve of compound) is above 3000 nM.
